{
  "source": "paper PMC10333465",
  "about": "“Multi-Function of a New Bioactive Secondary Metabolite Derived from Endophytic Fungus Colletotrichum acutatum of Angelica sinensis” (Journal of Microbiology and Biotechnology, 2022)",
  "assay_type_in_all_cases": "biochemical",
  "key": {"[1]": {"target": "α-glucosidase", "experiment": "colorimetric pNPG enzyme assay"}, "[2]": {"target": "T1, DNA topoisomerase I (Human Top I) (Homo sapiens, UniProt P11387)", "T1 construct": "gene TOP1", "T1 sequence (P11387 2-765)": "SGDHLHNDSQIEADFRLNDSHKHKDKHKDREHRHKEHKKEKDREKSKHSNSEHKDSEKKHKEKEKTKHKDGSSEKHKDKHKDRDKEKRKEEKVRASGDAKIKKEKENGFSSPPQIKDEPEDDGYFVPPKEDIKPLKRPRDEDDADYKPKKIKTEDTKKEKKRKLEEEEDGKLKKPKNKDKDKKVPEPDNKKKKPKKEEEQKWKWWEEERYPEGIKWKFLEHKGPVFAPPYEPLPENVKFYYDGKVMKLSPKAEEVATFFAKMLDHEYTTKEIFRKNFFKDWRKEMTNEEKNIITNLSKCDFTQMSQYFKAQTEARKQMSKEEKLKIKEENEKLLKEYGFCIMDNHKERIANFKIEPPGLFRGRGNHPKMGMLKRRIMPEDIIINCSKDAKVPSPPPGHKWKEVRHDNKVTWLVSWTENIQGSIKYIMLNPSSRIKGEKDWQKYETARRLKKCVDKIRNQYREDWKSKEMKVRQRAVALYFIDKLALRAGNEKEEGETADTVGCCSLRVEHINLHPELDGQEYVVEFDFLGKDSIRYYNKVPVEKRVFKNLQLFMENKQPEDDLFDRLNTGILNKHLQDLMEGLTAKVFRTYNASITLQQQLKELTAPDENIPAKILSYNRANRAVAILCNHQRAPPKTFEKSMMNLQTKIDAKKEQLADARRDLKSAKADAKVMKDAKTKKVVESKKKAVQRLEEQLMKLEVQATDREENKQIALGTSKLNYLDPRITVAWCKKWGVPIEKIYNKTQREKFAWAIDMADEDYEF", "experiment": "pBR322 supercoiled DNA relaxation assay, agarose gel ([…])"}, "[3]": {"target": "α-amylase", "experiment": "colorimetric starch/DNS enzyme assay"}},
  "data": [
    {"smiles": "CCCC(O)c1coc(=O)c(C)c1OC", "note": "(stereo not drawn) [C-HMMP, 5-(1-hydroxybutyl)-4-methoxy-3-methyl-2H-pyran-2-one]", "values": [
      {"measurement": "IC50", "setting": "[1]", "result": 144.7, "unit": "µg/mL"},
      {"measurement": "pBR322 supercoiled DNA relaxation assay, agarose gel (50, 150, 250 μg/ml)", "setting": "[2]", "result": "~ 250 μg/ml"},
      {"measurement": "IC50", "setting": "[3]", "result": 118.6, "unit": "µg/mL"}
    ]}
  ]
}
